Test results: patent US12371454B2, “Cyclic peptide compound having Kras inhibitory action” (priority 2019, dated 2025)
Starred links: 1 amine or outer side, 2 acyl side, 3 side chain; linkers in the order of their positions; H or OH if unused. Positions of bridges follow the written chain, without caps; N, C: chain ends. Non-standard residues stand in square brackets, D forms with d. Residues, ends and D or L forms follow the SMILES beside them. *: point of attachment. hPhe(3-Cl-4-CF3) = N[C@@H](CCc1ccc(C(F)(F)F)c(Cl)c1)C(=O)O; NMePhe(4-CF3) = CN[C@@H](Cc1ccc(C(F)(F)F)cc1)C(=O)O; hPhe(4-CF3) = N[C@@H](CCc1ccc(C(F)(F)F)cc1)C(=O)O; NMePhe(4-CN) = CN[C@@H](Cc1ccc(C#N)cc1)C(=O)O; NMePhe(4-Cl) = CN[C@@H](Cc1ccc(Cl)cc1)C(=O)O; NEtPhe(2-Cl) = CCN[C@@H](Cc1ccccc1Cl)C(=O)O; NMePhe(4-Me) = CN[C@@H](Cc1ccc(C)cc1)C(=O)O; Phe(2,6-F2) = N[C@@H](Cc1c(F)cccc1F)C(=O)O; NMedβ3hAla = C[C@H](CC(=O)[*:2])N(C)[*:1]; NMeAla(cPent) = CN[C@@H](CC1CCCC1)C(=O)O; hNle(7,7-F2) = N[C@@H](CCCCC(F)F)C(=O)O; NMeGly(cPent) = CN[C@H](C(=O)O)C1CCCC1; Phe(3-I) = N[C@@H](Cc1cccc(I)c1)C(=O)O; Pro(4,4-F2) = O=C(O)[C@@H]1CC(F)(F)CN1; NMeY = CN[C@@H](Cc1ccc(O)cc1)C(=O)O; NMeCha = CN[C@@H](CC1CCCCC1)C(=O)O; NMehLeu = CN[C@@H](CCC(C)C)C(=O)O; NMeChg = CN[C@H](C(=O)O)C1CCCCC1; NMeF = CN[C@@H](Cc1ccccc1)C(=O)O; NMeI = CC[C@H](C)[C@H](NC)C(=O)O; NMeD = CN[C@@H](CC(=O)O)C(=O)O; AllylGly = C=CC[C@H](N)C(=O)O; NMeL = CN[C@@H](CC(C)C)C(=O)O; NMeNva = CCC[C@H](NC)C(=O)O; NMeV = CN[C@H](C(=O)O)C(C)C; d(β3hA) = C[C@@H](N)CC(=O)O; NMeAbu = CC[C@H](NC)C(=O)O; NMeA = CN[C@@H](C)C(=O)O; NMeAib = CNC(C)(C)C(=O)O; Nle = CCCC[C@H](N)C(=O)O; Piperidide = C1CCN(*)CC1; Pyrrolidide = C1CCN(*)C1; Ac5c = NC1(C(=O)O)CCCC1; Aze = O=C(O)[C@@H]1CCN1; NEtG = CCNCC(=O)O; Sar = CNCC(=O)O

Target: T1, Kras and SOS1 (biotin-tagged human Kras loaded with GDP, His-tagged human SOS1) (Homo sapiens, UniProt P01116, G12D)
T1 construct: made in house; host or cells: E. coli (stated for Kras only)
T1 sequence (P01116 1-188 isoform P01116-2 G12D): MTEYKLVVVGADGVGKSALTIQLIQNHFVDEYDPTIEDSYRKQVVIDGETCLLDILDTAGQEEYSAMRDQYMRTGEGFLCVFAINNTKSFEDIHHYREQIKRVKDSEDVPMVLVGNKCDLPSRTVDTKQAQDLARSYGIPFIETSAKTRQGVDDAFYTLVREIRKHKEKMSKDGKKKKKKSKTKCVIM
Experiment: Protein-protein interaction inhibition between Kras and SOS1 (KrasGl2D-SOS PPI) using AlphaScreen
Type: binding
Conditions: AlphaScreen; biotin-tagged human Kras loaded with GDP, His-tagged human SOS1; read-out: KRAS G12D-SOS PPI IC50
Summary of the method: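 Read-out is acceptor-bead light at 520-620 nm, arising when 680 nm-irradiated nickel donor beads pass singlet oxygen to streptavidin acceptors. The bead pair links His-tagged SOS1 with biotin-tagged, GDP-bound Kras from E. coli.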

Going from `CCC[C@H]1C(=O)N[C@@H]([C@@H](C)CC)C(=O)N(C)CC(=O)N(C)CC(=O)N(C)[C@@H](Cc2ccc(C)cc2)C(=O)N(C)CC(=O)N[C@@H](CCc2ccc(C(F)(F)F)c(Cl)c2)C(=O)N2CC(F)(F)C[C@H]2C(=O)NC2(CCCC2)C(=O)N(C)[C@@H](C2CCCCC2)C(=O)N(C)[C@H](C(=O)N2CCCC2)CC(=O)N1C` [Compound 1296] ([NMeNva]I[Sar][Sar][NMePhe(4-Me)][Sar][hPhe(3-Cl-4-CF3)][Pro(4,4-F2)][Ac5c][NMeChg][NMeD]-Pyrrolidide; lactam N-11) to `CC[C@H](C)[C@@H]1NC(=O)[C@H](C)N(C)C(=O)C[C@@H](C(=O)N2CCCC2)N(C)C(=O)[C@H](C(C)C)N(C)C(=O)C2(CCCC2)NC(=O)[C@H](Cc2ccccc2Cl)N(CC)C(=O)[C@H](CCc2ccc(C(F)(F)F)c(Cl)c2)NC(=O)CN(C)C(=O)[C@H](CC2CCCCC2)N(C)C(=O)CN(C)C(=O)CN(C)C1=O` [Compound 2162] ([NMeA]I[Sar][Sar][NMeCha][Sar][hPhe(3-Cl-4-CF3)][NEtPhe(2-Cl)][Ac5c][NMeV][NMeD]-Pyrrolidide; lactam N-11), the IC50 rises from 0.59 nM to 200 nM (340-fold).

Compared with `CC[C@H](C)[C@@H]1NC(=O)[C@H](C)N(C)C(=O)C[C@@H](C)N(C)C(=O)[C@H](CC2CCCC2)N(C)C(=O)C(C)(C)N(C)C(=O)[C@@H]2CCCN2C(=O)[C@H](CCc2ccc(C(F)(F)F)c(Cl)c2)NC(=O)CN(C)C(=O)[C@H](CC2CCCCC2)N(C)C(=O)[C@@H]2CCN2C(=O)[C@H](C)N(C)C1=O` [Compound 2158] (cyclo([Aze][NMeCha][Sar][hPhe(3-Cl-4-CF3)]P[NMeAib][NMeAla(cPent)][NMedβ3hAla][NMeA]I[NMeA])), `CC[C@H](C)[C@@H]1NC(=O)[C@H](C)N(C)C(=O)C[C@@H](C)N(C)C(=O)[C@H](C2CCCC2)N(C)C(=O)C(C)(C)N(C)C(=O)[C@@H]2CCCN2C(=O)[C@H](CCc2ccc(C(F)(F)F)c(Cl)c2)NC(=O)CN(C)C(=O)[C@H](CC2CCCCC2)N(C)C(=O)[C@@H]2CCN2C(=O)[C@H](C)N(C)C1=O` [Compound 2156] (cyclo([Aze][NMeCha][Sar][hPhe(3-Cl-4-CF3)]P[NMeAib][NMeGly(cPent)][NMedβ3hAla][NMeA]I[NMeA])) is 20-fold lower in IC50: 89 nM for the first, 4.5 nM for the second. The second is the more potent here.

First: CC[C@H](C)[C@@H]1NC(=O)[C@H](CC(C)C)N(C)C(=O)C[C@@H](C(=O)N(C)C)N(C)C(=O)[C@H]([C@@H](C)CC)N(C)C(=O)C2(CCCC2)NC(=O)[C@H](Cc2ccc(C#N)cc2)N(C)C(=O)[C@H](CCc2ccc(C(F)(F)F)c(Cl)c2)NC(=O)CN(C)C(=O)[C@H](Cc2ccc(C)cc2)N(C)C(=O)[C@@H]2CCN2C(=O)[C@H](C)N(C)C1=O [Compound 1927] ([NMeL]I[NMeA][Aze][NMePhe(4-Me)][Sar][hPhe(3-Cl-4-CF3)][NMePhe(4-CN)][Ac5c][NMeI][NMeD]-NMe2; lactam N-11)
Second: CC[C@H](C)[C@@H]1NC(=O)[C@H](CCC(C)C)N(C)C(=O)C[C@@H](C(=O)N2CCCC2)N(C)C(=O)[C@H]([C@@H](C)CC)N(C)C(=O)C2(CCCC2)NC(=O)[C@@H]2CCCN2C(=O)[C@H](CCc2ccc(C(F)(F)F)c(Cl)c2)NC(=O)CN(C)C(=O)[C@H](Cc2ccc(C(F)(F)F)cc2)N(C)C(=O)[C@@H]2CCN2C(=O)[C@H](C)N(C)C1=O [Compound 1289] ([NMehLeu]I[NMeA][Aze][NMePhe(4-CF3)][Sar][hPhe(3-Cl-4-CF3)]P[Ac5c][NMeI][NMeD]-Pyrrolidide; lactam N-11)
The IC50 of the first is 4.9-fold higher: 3.3 nM for the first, 0.67 nM for the second.

Going from `CCCC[C@@H]1NC(=O)[C@H](Cc2c(F)cccc2F)NC(=O)CN(C)C(=O)[C@H](Cc2ccc(OC)cc2)N(C)C(=O)[C@@H]2CCN2C(=O)[C@H](C)N(C)C(=O)[C@H]([C@@H](C)CC)NC(=O)[C@H](CC)N(C)C(=O)C[C@@H](C(=O)N2CCCCC2)N(C)C(=O)[C@H](CC(C)C)NC(=O)C(C)(C)N(C)C1=O` [Compound 1187] ([NMeAbu]I[NMeA][Aze][NMeY](Me)[Sar][Phe(2,6-F2)][Nle][NMeAib]L[NMeD]-Piperidide; lactam N-11) to `C=CC[C@@H]1NC(=O)[C@H](Cc2cccc(I)c2)NC(=O)CN(C)C(=O)[C@H](Cc2ccc(Cl)cc2)N(C)C(=O)CN(C)C(=O)CN(C)C(=O)[C@H]([C@@H](C)CC)NC(=O)[C@H](CC(C)C)N(C)C(=O)C[C@@H](C(=O)N2CCCC2)N(C)C(=O)[C@H](CC(C)C)NC(=O)C(C)(C)N(C)C1=O` [Compound 1431] ([NMeL]I[Sar][Sar][NMePhe(4-Cl)][Sar][Phe(3-I)][AllylGly][NMeAib]L[NMeD]-Pyrrolidide; lactam N-11), the IC50 rises from 99 nM to 220 nM (2.2-fold). The first is the more potent here.

`CC[C@H](C)[C@@H]1NC(=O)[C@H](C)N(C)C(=O)C[C@@H](C)N(C)C(=O)[C@H](C2CCCCC2)N(C)C(=O)C2(CCCC2)NC(=O)[C@@H]2CCCN2C(=O)[C@H](CCc2ccc(C(F)(F)F)c(Cl)c2)NC(=O)CN(C)C(=O)[C@H](CC2CCCCC2)N(C)C(=O)CN(C)C(=O)CN(C)C1=O` [Compound 1808] (cyclo([Ac5c][NMeChg][NMedβ3hAla][NMeA]I[Sar][Sar][NMeCha][Sar][hPhe(3-Cl-4-CF3)]P)) and `CC[C@H](C)[C@@H]1NC(=O)[C@H](CC(C)C)N(C)C(=O)C[C@@H](C)NC(=O)[C@H](C2CCCCC2)N(C)C(=O)C2(CCCC2)NC(=O)[C@@H]2CCCN2C(=O)[C@H](CCc2ccc(C(F)(F)F)c(Cl)c2)NC(=O)CN(C)C(=O)[C@H](CC2CCCCC2)N(C)C(=O)CN(C)C(=O)CN(C)C1=O` [Compound 593] (cyclo([Ac5c][NMeChg][d(β3hA)][NMeL]I[Sar][Sar][NMeCha][Sar][hPhe(3-Cl-4-CF3)]P)) are within 1.5-fold of each other in IC50: 47 nM for the first, 34 nM for the second.

`CC[C@H](C)[C@@H]1NC(=O)[C@H](C)N(C)C(=O)C[C@@H](C(=O)N2CCCC2)NC(=O)[C@H](CC(C)C)N(C)C(=O)[C@H](Cc2ccccc2)N(C)C(=O)[C@H](CCCCC(F)F)NC(=O)[C@H](CCc2ccc(C(F)(F)F)cc2)NC(=O)CN(C)C(=O)[C@H](Cc2ccc(Cl)cc2)N(C)C(=O)CN(C)C(=O)CN(C)C1=O` [Compound 1092] ([NMeA]I[Sar][Sar][NMePhe(4-Cl)][Sar][hPhe(4-CF3)][hNle(7,7-F2)][NMeF][NMeL]D-Pyrrolidide; lactam N-11) and `CC[C@H](C)[C@@H]1NC(=O)[C@H](CC(C)C)N(C)C(=O)C[C@@H](C)NC(=O)[C@H](C(C)C)N(C)C(=O)C2(CCCC2)NC(=O)[C@@H]2CCCN2C(=O)[C@H](CCc2ccc(C(F)(F)F)c(Cl)c2)NC(=O)CN(C)C(=O)[C@H](CC2CCCCC2)N(C)C(=O)CN(CC)C(=O)CN(C)C1=O` [Compound 504] (cyclo([Ac5c][NMeV][d(β3hA)][NMeL]I[Sar][NEtG][NMeCha][Sar][hPhe(3-Cl-4-CF3)]P)) are within 1.5-fold of each other in IC50: 41 nM for the first, 53 nM for the second.
